This note sets out measurements from ChEMBL document CHEMBL4393659, “Insights into the chemistry and therapeutic potential of furanones: A versatile pharmacophore” (Eur J Med Chem, 2019).

≈ marks a conversion by molar mass, not a printed value.

Data set [1] has as its system Mus musculus. In words: Anticonvulsant activity in ip dosed mouse assessed as reduction in PTZ-induced seizures pretreated for 30 mins followed by PTZ addition. In kind it is functional.
Data set [2] has as its system Rattus norvegicus. Description: Antiinflammatory activity in Wistar rat assessed as inhibition of carrageenan-induced edema measured upto 4 hrs. The data set is classed as functional. For orientation: The carrageenan paw model is a standard test of acute inflammation.
Data set [3] concerns Candida albicans. Description: Antifungal activity against Candida albicans assessed as reduction in fungal cell viability incubated for 48 hrs by broth microdilution method. The data set is classed as functional.
In data set [4] the test system is Pseudomonas aeruginosa. Description: Antibacterial activity against Pseudomonas aeruginosa NCLM-2035 assessed as reduction in bacterial cell viability incubated for 24 hrs by broth microdilution method. In kind it is functional. Conditions: NCLM-2035, 24 h. (In general: Broth dilution looks for growth in wells or tubes with falling amounts of substance.)
Data set [5] concerns Escherichia coli. In words: Antibacterial activity against Escherichia coli ATCC 8739 assessed as reduction in bacterial cell viability incubated for 24 hrs by broth microdilution method. The data set is classed as functional. The settings on record: ATCC 8739, 24 h.
Data set [6] relates to Aspergillus niger. Description: Antifungal activity against Aspergillus niger assessed as reduction in fungal cell viability incubated for 48 hrs by broth microdilution method. The data set is classed as functional.
Data set [7] deals with Staphylococcus aureus. Description: Antibacterial activity against Staphylococcus aureus ATCC 29737 assessed as reduction in bacterial cell viability incubated for 24 hrs by broth microdilution method. The data set is classed as functional. Conditions: ATCC 29737, 24 h.
The test system of data set [8] is Rhizopus arrhizus. Description: Antifungal activity against Rhizopus oryzae assessed as reduction in fungal cell viability incubated for 48 hrs by broth microdilution method. In kind it is functional.
Data set [9] relates to NIH3T3. In words: Cytotoxicity against mouse NIH/3T3 cells assessed as reduction in cell viability incubated for 48 hrs by SRB method. In kind it is functional. The settings on record: NIH3T3, 48 h, read-out: ED50 (the source's name). A general note: In SRB staining, fixed cells bind dye roughly in proportion to their protein.
Data set [10] deals with A549. In words: Cytotoxicity against human A549 cells assessed as reduction in cell viability incubated for 48 hrs by SRB method. In kind it is functional. Conditions: A549, 48 h, read-out: ED50 (the source's name).
Data set [11] has as its system SK-OV-3. In words: Cytotoxicity against human SKOV3 cells assessed as reduction in cell viability incubated for 48 hrs by SRB method. In kind it is functional. Conditions: SK-OV-3, 48 h, read-out: ED50 (the source's name).
The test system of data set [12] is Plasmodium falciparum. In words: Antimalarial activity against Plasmodium falciparum infected in human blood assessed as reduction in cell viability incubated for 72 hrs by Giemsa stain based assay. The data set is classed as functional.
For data set [13], the system named is Escherichia coli. In words: Antibacterial activity against Escherichia coli assessed as inhibition zone incubated for 24 hrs by disk diffusion method relative to control. The data set is classed as functional.
Data set [14] relates to Escherichia coli. In words: Antibacterial activity against Escherichia coli. In kind it is functional.
A short description of data set [15]: Ulcerogenicity in Wistar rat assessed as gastric lesions by measuring ulcer severity index at 60 mg/kg , po measured after 17 hrs relative to ibuprofen. The data set is classed as toxicity, organism-based. Conditions: in vivo.
The species named for data set [16] is Rattus norvegicus. In words: Antiarthritic activity in adjuvant-induced Sprague-Dawley rat. The data set is classed as functional.
Data set [17] concerns Rattus norvegicus. Description: Antiinflammatory activity in Sprague-Dawley rat assessed as inhibition of carrageenan-induced paw edema at 3 mg/kg , po relative to control. The data set is classed as functional.
The subject of data set [18] is Candida albicans. In words: Antifungal activity against Candida albicans ATCC 90028 assessed as reduction in fungal cell viability measured after 24 and 48 hrs by spectrophotometry. The data set is classed as functional.
Data set [19] relates to Mycobacterium tuberculosis. In words: Antimycobacterial activity against Mycobacterium tuberculosis H37Rv. In kind it is functional, organism-based.
Data set [20] deals with Salmonella typhimurium. In words: Inhibition of biofilm formation in Salmonella enterica subsp. enterica serovar Typhimurium 14028S incubated for 48 hrs by crystal violet staining based assay. In kind it is functional, organism-based.
The subject of data set [21] is Rattus norvegicus. Description: Antiinflammatory activity in albino rat assessed as inhibition of carrageenan-induced paw edema by measuring mercury displacement at 20 mg/kg , po relative to control. The data set is classed as functional.
Data set [22] concerns Rattus norvegicus. Description: Antiinflammatory activity in po dosed rat. The data set is classed as functional.
The test system of data set [23] is Mus musculus. Description: Analgesic activity in Swiss albino mouse assessed as inhibition of acetic acid induced writhing at 20 mg/kg , po incubated for 3 hrs followed by acetic acid administered and observed for 5 to 15 mins relative to control. The data set is classed as functional.
The subject of data set [24] is Rattus norvegicus. In words: Antiinflammatory activity in Wistar albino rat assessed as inhibition of carrageenan-induced paw edema at 20 mg/kg , po incubated for 30 mins followed by carrageenan addition and measured after 3 hrs by plethysmometry relative to control. The data set is classed as functional.
Data set [25] has as its system Mus musculus. Description: Anticonvulsant activity in ip dosed CF-1 mouse assessed as protection against PTZ-induced seizures measured after 30 mins […]. The data set is classed as functional.
The target in data set [26] is GABA-A receptor; anion channel. Description: Displacement of [35S]TBPS from GABAA (unknown origin) incubated for 90 mins by scintillation counting method. In kind it is protein-complex assay, Homo sapiens.
The subject of data set [27] is Staphylococcus aureus. Description: Antibacterial activity against Staphylococcus aureus. In kind it is functional.
The test system of data set [28] is Liver. In words: Antioxidant activity in Wistar rat liver microsomes assessed as inhibition of AAPH-induced MDA production at 100 mM incubated for 15 mins. In kind it is functional. The settings on record: Microsome.

For the molecule `CCC1(CC)CC(CCNC(=O)c2ccccc2)OC1=O` (centres undefined), the ED50 (usually the midpoint of the dose-response relation) in [1] was in the range of 89.9 to 285 mg/kg. For `Cc1ccc2cc(/C=C3\C=C(c4ccc(-c5ccccc5)cc4)OC3=O)c(Cl)nc2c1`, the “inhibition (INH)” value in [2] is on record as 56 - 63%. The same measure, in the same setting: with `O=C1OC(c2ccc(-c3ccccc3)cc2)=C/C1=C\c1cc2ccc([N+](=O)[O-])cc2nc1Cl` the figure was 56 - 63%.

For the molecule `O=C1OC(c2ccc(Cl)cc2)=C/C1=C\c1ccc(F)cc1`, the MIC in data set [3], in data set [4], in [5], in data set [6], in data set [7] and in [8] was 12.5 to 50 µg/mL (≈ 41.6 to 166 µM) each time.

For `O=C1C=C/C(=C\c2cccc([N+](=O)[O-])c2)O1`, the EC50 in data set [9], in [10] and in [11] was 5.9 to 21 µg/mL (≈ 27.2 to 96.7 µM) each time. As to `COc1cccc2cc(/C=C3/CC(c4ccc(C)cc4C)OC3=O)c(Cl)nc12` (centres undefined), in [12], the MIC (in general, the lowest concentration that inhibits growth of the organism) was in the range of 0.5 to 0.72 µg/mL (≈ 1.27 to 1.83 µM). Regarding `COc1ccc(C2=C/C(=C/c3ccc(N(C)C)cc3)C(=O)O2)cc1`, the “inhibition zone (IZ)” value in data set [13] amounted to 16 mm. As to `COc1cc(/C=C2\C=CC(=O)O2)c(OC)c2c1C(=O)c1ccccc1C2=O`, the EC50 in data set [9], in data set [10] and in data set [11] was 9.2 to 16.5 µg/mL (≈ 25.4 to 45.5 µM) in each case. For `COc1ccc(C2=C/C(=C/c3ccc(F)cc3)C(=O)O2)cc1`, in data set [13], the “inhibition zone (IZ)” value was 14 mm.

Molecule `O=C1C=C(c2ccc(Br)cc2)O/C1=N\C12CC3CC(CC(C3)C1)C2` returned an MIC in [14] of 31 µg/mL (≈ 80.3 µM). For the molecule `CC(C)Cc1ccc(C2=C/C(=C\c3ccccc3Cl)C(=O)O2)cc1`, the UI in data set [15] turned out to be 0.2.

`O=C1C=C(c2ccc(Cl)cc2)O/C1=N\C12CC3CC(CC(C3)C1)C2` registered an MIC in data set [14] of 7.8 µg/mL (≈ 22.8 µM).

For the molecule `CC1(C)OC(c2ccc(S(C)(=O)=O)cc2)=C(c2cccc(C(F)(F)F)c2)C1=O`, in [16], the ED50 was 0.06 mg/kg/day. Also, in [17], the inhibition in vivo (commonly the share of the control response that was lost under treatment) at 3 mg/kg was found to be 32%. Turning to `CC(=O)OCC1C=C(c2cccc(Cl)c2)C(=O)O1` (centres undefined), the minimum inhibitory concentration (MIC) in data set [18] was found to be 1 µg/mL (≈ 3.75 µM). Consider `COc1cccc2cc(/C=C3/CC(c4ccc(Cl)cc4)OC3=O)c(Cl)nc12` (centres undefined), for which, in data set [12], the MIC is 0.5 to 0.72 µg/mL (≈ 1.25 to 1.8 µM).

Take `CC1COc2c(N3CCN(C)CC3)c(F)cc3c(=O)c(C(=O)O)cn1c23` (centres undefined) [OFLOXACIN]: in data set [13], the “inhibition zone (IZ)” value came out at 24 mm.

As for `COc1cc(/C=C2\C=C(c3cccc(Br)c3)OC2=O)ccc1OC(C)=O`, in data set [19], the IC50 – broadly, the midpoint of a concentration-inhibition curve – came to 5.05 µg/mL (≈ 12.2 µM) and the 90% effect level (IC90) was put at 7.85 µg/mL (≈ 18.9 µM). As for `O=C1C=C/C(=C/Br)O1`, in [20], the IC50 came out at 15 µM.

With `COc1cc(/C=C2/C=C(c3ccc(C)cc3)OC2=O)cc(OC)c1OC`, in data set [21], the inhibition in vivo at 20 mg/kg stood at 45.2%. `O=C1C(Br)=C(c2ccccc2)O/C1=N\C12CC3CC(CC(C3)C1)C2` displayed an MIC in data set [14] of 15.6 µg/mL (≈ 40.4 µM).

For the molecule `COc1cccc2cc(/C=C3/CC(c4ccc(Cl)c(Cl)c4)OC3=O)c(Cl)nc12` (centres undefined), the MIC in data set [12] was in the range of 0.5 to 0.72 µg/mL (≈ 1.15 to 1.66 µM).

On to `CC1(O)OC(=O)C(c2ccccc2)=C1c1ccc(S(C)(=O)=O)cc1` (centres undefined), for which the ED50 in data set [22] is 1.5 mg/kg.

As to `CC1(O)OC(=O)C(c2ccc(Cl)cc2)=C1c1ccc(S(C)(=O)=O)cc1` (centres undefined), in data set [22], the ED50 turned out to be 1.4 mg/kg. `O=C1OC(c2ccc3ccccc3c2)=C/C1=C\c1ccc([N+](=O)[O-])cc1`: the inhibition in vivo at 20 mg/kg in data set [23] lay within 70 to 74%; in data set [24] it was 74.8 to 89.7%. Take `O=C1OCCC1CC(F)(F)F` (centres undefined): the CD50 in data set [25] came out at 30 mg/kg. Also, the IC50 in data set [26] was 105 µM. As for `CC1(CC(F)(F)F)COC(=O)C1` (centres undefined), the CD50 in data set [25] amounted to 3 mg/kg. In data set [26], this molecule returned an IC50 of 8 µM.

Regarding `C/C(C#N)=C1/OC(c2ccc(C)cc2)=C(Cl)C1=O`, the minimal inhibitory concentration (MIC) in [14] turned out to be 62.5 µg/mL (≈ 241 µM); in data set [27] it was 15.6 µg/mL (≈ 60.1 µM).

Take `CC(=O)OCC1C=C(c2ccc(Cl)c(Cl)c2)C(=O)O1` (centres undefined): in [18], the MIC was determined as 2 µg/mL (≈ 6.64 µM). Regarding `Cc1c(C)c2c(c(C)c1O)CCC(C)(CC1OC[C@@H]([C@H]3OC(=O)C(O)=C3O)O1)O2` (some centres undefined), the inhibition (commonly the change of the read-out against control, counted positive when it falls) in data set [28] was 100%.
